Data taken from PubChem BioAssay AID328 (DTP/NCI, 2004).
Values joined by “and” are separate entries in the source; they are usually repeats but may differ in a detail not shown here. Identical values can stand only once. Toxic doses and inconclusive results are not listed.

System: BDF1 mice, P388 leukemia ip, median survival T/C
Assay: NCI In Vivo Anticancer Drug Screen. Data for tumor model P388 Leukemia (intraperitoneal) in B6D2F1 (BDF1) mice
Conditions: endpoint: median survival time, higher = longer survival
Method in brief: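 Transplantable tumour in mice; compound vs vehicle dosing; survival scored; ratio of treated to control reported.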

[1] = dose: 12.5 mg/kg/injection, schedule: Q04DX003 (ip), vehicle: Klucel (hydroxypropylcellulose) (HPC)
[2] = dose: 100.0 mg/kg/injection, schedule: Q04DX003 (ip), vehicle: saline with Tween-80
[3] = dose: 200.0 mg/kg/injection, schedule: Q04DX003 (ip), vehicle: saline with Tween-80
[4] = dose: 400.0 mg/kg/injection, schedule: Q04DX003 (ip), vehicle: saline with Tween-80
[5] = dose: 100.0 mg/kg/injection, schedule: Q01DX009 (ip), vehicle: saline with Tween-80
[6] = dose: 200.0 mg/kg/injection, schedule: Q01DX009 (ip), vehicle: saline with Tween-80
[7] = dose: 100.0 mg/kg/injection, schedule: Q01DX001 (ip), vehicle: saline sonified
[8] = dose: 200.0 mg/kg/injection, schedule: Q01DX001 (ip), vehicle: saline sonified
[9] = dose: 400.0 mg/kg/injection, schedule: Q01DX001 (ip), vehicle: saline sonified
[10] = dose: 25.0 mg/kg/injection, schedule: Q01DX009 (ip), vehicle: Klucel (hydroxypropylcellulose) (HPC)
[11] = dose: 50.0 mg/kg/injection, schedule: Q04DX003 (ip), vehicle: Klucel (hydroxypropylcellulose) (HPC)
[12] = dose: 100.0 mg/kg/injection, schedule: Q01DX009 (ip), vehicle: Klucel (hydroxypropylcellulose) (HPC)
[13] = dose: 100.0 mg/kg/injection, schedule: Q04DX003 (ip), vehicle: Klucel (hydroxypropylcellulose) (HPC)
[14] = dose: 25.0 mg/kg/injection, schedule: Q01DX009 (ip), vehicle: saline with Tween-80
[15] = dose: 50.0 mg/kg/injection, schedule: Q01DX009 (ip), vehicle: saline with Tween-80
[16] = dose: 6.25 mg/kg/injection, schedule: Q01DX009 (ip), vehicle: Klucel (hydroxypropylcellulose) (HPC)
[17] = dose: 12.5 mg/kg/injection, schedule: Q01DX009 (ip), vehicle: Klucel (hydroxypropylcellulose) (HPC)

COC(=O)C(CSCc1ccccc1)NC(=O)CCNC(=O)OCc1ccccc1 (stereo not drawn)
T/C (dose: 1.56 mg/kg/injection, schedule: Q04DX003 (ip), vehicle: Klucel (hydroxypropylcellulose) (HPC)): 100 % of control | T/C (dose: 3.13 mg/kg/injection, schedule: Q04DX003 (ip), vehicle: Klucel (hydroxypropylcellulose) (HPC)): 104 % of control | T/C (dose: 6.25 mg/kg/injection, schedule: Q04DX003 (ip), vehicle: Klucel (hydroxypropylcellulose) (HPC)): 113 % of control | T/C [1]: 104 % of control | T/C (dose: 12.5 mg/kg/injection, schedule: Q04DX003 (ip), vehicle: saline with Tween-80): 93 % of control | T/C (dose: 25.0 mg/kg/injection, schedule: Q04DX003 (ip), vehicle: saline with Tween-80): 102 % of control | T/C (dose: 50.0 mg/kg/injection, schedule: Q04DX003 (ip), vehicle: saline with Tween-80): 100 % of control | T/C [2]: 107 % of control | T/C [3]: 94 % of control | T/C [4]: 94 % of control

CN[C@H]1CC[C@]23C[C@]24CC[C@]2(C)[C@@H]([C@H](C)N(C)C)CC[C@@]2(C)[C@@H]4CC[C@H]3C1(C)C
T/C (dose: 2.6 mg/kg/injection, schedule: Q01DX010 (ip), vehicle: saline): 90 % of control | T/C (dose: 4.0 mg/kg/injection, schedule: Q01DX010 (ip), vehicle: saline): 100 % of control | T/C (dose: 6.6 mg/kg/injection, schedule: Q01DX010 (ip), vehicle: saline): 118 % of control | T/C (dose: 8.8 mg/kg/injection, schedule: Q01DX010 (ip), vehicle: carboxymethylcellulose (CMC)): 100 % of control | T/C (dose: 10.0 mg/kg/injection, schedule: Q01DX010 (ip), vehicle: saline): 100 % of control | T/C (dose: 13.3 mg/kg/injection, schedule: Q01DX010 (ip), vehicle: carboxymethylcellulose (CMC)): 105 % of control | T/C (dose: 16.0 mg/kg/injection, schedule: Q01DX010 (ip), vehicle: saline): 113 % of control | T/C (dose: 20.0 mg/kg/injection, schedule: Q01DX010 (ip), vehicle: carboxymethylcellulose (CMC)): 115 % of control | T/C (dose: 26.0 mg/kg/injection, schedule: Q01DX010 (ip), vehicle: saline): 90 % of control | T/C (dose: 30.0 mg/kg/injection, schedule: Q01DX010 (ip), vehicle: carboxymethylcellulose (CMC)): 94 % of control | T/C (dose: 45.0 mg/kg/injection, schedule: Q01DX010 (ip), vehicle: carboxymethylcellulose (CMC)): 94 % of control

CC(=N\O)/C(C)=N/O.CC(=N\O)/C(C)=N/O.CC1CC[N-]CC1.CC1CC[N-]CC1.CC1CC[N-]CC1.CC1CC[N-]CC1.[Cl][Rh][Cl].[Pt+2]
T/C (dose: 0.39 mg/kg/injection, schedule: Q01DX009 (ip), vehicle: water): 110 % of control | T/C (dose: 0.78 mg/kg/injection, schedule: Q01DX009 (ip), vehicle: water): 110 % of control | T/C (dose: 1.56 mg/kg/injection, schedule: Q01DX009 (ip), vehicle: water): 98 % of control | T/C (dose: 6.25 mg/kg/injection, schedule: Q01DX009 (ip), vehicle: water): 94 % of control | T/C (dose: 12.5 mg/kg/injection, schedule: Q01DX009 (ip), vehicle: water): 99 % of control

COC(=O)C(C)=O
T/C [5]: 90 % of control | T/C [6]: 95 % of control | T/C (dose: 400.0 mg/kg/injection, schedule: Q01DX009 (ip), vehicle: saline with Tween-80): 90 % of control

Cc1ccc(S(=O)(=O)Nc2ccccc2SSc2ccccc2NS(=O)(=O)c2ccc(C)cc2)cc1
T/C [2]: 100 % of control | T/C [3]: 110 % of control | T/C [4]: 110 % of control

N=[N+]=CC(=O)CC(N)C(=O)O (stereo not drawn)
T/C [7]: 95 % of control | T/C [8]: 86 % of control | T/C [9]: 95 % of control

O=[N+]([O-])c1cccc2c([N+](=O)[O-])cccc12
T/C [7]: 95 % of control | T/C [8]: 100 % of control | T/C [9]: 115 % of control

N#CC(C#N)=Cc1cccc([N+](=O)[O-])c1
T/C [10]: 90 % of control and 115 % of control | T/C [11]: 113 % of control | T/C [12]: 95 % of control | T/C [13]: 113 % of control

CC(C)CC(C(N)=O)c1ccccc1 (stereo not drawn)
T/C (dose: 100.0 mg/kg/injection, schedule: Q01DX001 (ip), vehicle: saline with Tween-80): 100 % of control | T/C (dose: 200.0 mg/kg/injection, schedule: Q01DX001 (ip), vehicle: saline with Tween-80): 104 % of control

CC(=O)CC(=O)Nc1ccc(N=Nc2ccccc2)cc1
T/C [2]: 109 % of control | T/C [3]: 109 % of control | T/C [4]: 119 % of control

CCn1c2ccccc2c2cc(NC(=O)N(CCCl)N=O)ccc21
T/C (dose: 100.0 mg/kg/injection, schedule: Q01DX009 (ip), vehicle: saline sonified): 170 % of control | T/C (dose: 200.0 mg/kg/injection, schedule: Q01DX009 (ip), vehicle: saline sonified): 150 % of control | T/C (dose: 400.0 mg/kg/injection, schedule: Q01DX009 (ip), vehicle: saline sonified): 185 % of control

CCC1OCC(C(Cl)CCl)O1 (stereo not drawn)
T/C [5]: 118 % of control | T/C [2]: 113 % of control | T/C [3]: 118 % of control | T/C [4]: 104 % of control

O=C(O)c1ccc(SSc2ccc(C(=O)O)cn2)nc1
T/C [12]: 92 % of control and 104 % of control | T/C [13]: 100 % of control | T/C (dose: 100.0 mg/kg/injection, schedule: Q04DX003 (ip), vehicle: saline): 118 % of control | T/C (dose: 200.0 mg/kg/injection, schedule: Q01DX009 (ip), vehicle: Klucel (hydroxypropylcellulose) (HPC)): 109 % of control and 119 % of control | T/C (dose: 200.0 mg/kg/injection, schedule: Q04DX003 (ip), vehicle: Klucel (hydroxypropylcellulose) (HPC)): 100 % of control | T/C (dose: 200.0 mg/kg/injection, schedule: Q04DX003 (ip), vehicle: saline): 109 % of control | T/C (dose: 400.0 mg/kg/injection, schedule: Q01DX009 (ip), vehicle: Klucel (hydroxypropylcellulose) (HPC)): 107 % of control and 109 % of control | T/C (dose: 400.0 mg/kg/injection, schedule: Q04DX003 (ip), vehicle: Klucel (hydroxypropylcellulose) (HPC)): 100 % of control | T/C (dose: 400.0 mg/kg/injection, schedule: Q04DX003 (ip), vehicle: saline): 113 % of control

CC1CCC2=C(C1)S(=O)(=O)CC2 (stereo not drawn)
T/C (dose: 6.25 mg/kg/injection, schedule: Q04DX002 (ip), vehicle: saline): 103 % of control | T/C (dose: 12.5 mg/kg/injection, schedule: Q04DX002 (ip), vehicle: saline): 94 % of control | T/C (dose: 25.0 mg/kg/injection, schedule: Q04DX002 (ip), vehicle: saline): 103 % of control

COc1ccc(-c2c[se]c(=S)s2)cc1
T/C [14]: 99 % of control | T/C [15]: 94 % of control | T/C [5]: 87 % of control

O=C(/C=C/c1ccc(OCc2ccccc2)cc1)c1ccccn1
T/C [15]: 97 % of control | T/C [5]: 98 % of control | T/C [6]: 96 % of control

c1ccc(C[n+]2cccc3ccccc32)cc1
T/C [16]: 109 % of control | T/C (dose: 6.25 mg/kg/injection, schedule: Q04DX003 (ip), vehicle: saline): 100 % of control | T/C [17]: 90 % of control | T/C (dose: 12.5 mg/kg/injection, schedule: Q04DX003 (ip), vehicle: saline): 100 % of control | T/C [10]: 90 % of control | T/C (dose: 25.0 mg/kg/injection, schedule: Q04DX003 (ip), vehicle: saline): 104 % of control

COc1ccc(CC2c3ccccc3CC[N+]2(C)C)cc1Oc1ccc(CC2c3ccccc3CC[N+]2(C)C)cc1 (stereo not drawn)
T/C (dose: 0.39 mg/kg/injection, schedule: Q04DX003 (ip), vehicle: saline): 98 % of control | T/C (dose: 0.78 mg/kg/injection, schedule: Q04DX003 (ip), vehicle: saline): 105 % of control | T/C (dose: 1.56 mg/kg/injection, schedule: Q04DX003 (ip), vehicle: saline with Tween-80): 104 % of control

BrCC1CCCO1 (stereo not drawn)
T/C [14]: 101 % of control | T/C [15]: 110 % of control

Oc1ccccc1C=NCCN1CC1.Oc1ccccc1C=NCCN1CC1.[Ni+2]
T/C [16]: 101 % of control | T/C [17]: 101 % of control | T/C [1]: 98 % of control | T/C (dose: 25.0 mg/kg/injection, schedule: Q04DX003 (ip), vehicle: saline sonified): 115 % of control | T/C [11]: 122 % of control
